In US9623063B2, “Extracts from Ajuga reptans cell lines, their preparation and use” (I.R.B. ISTITUTO DI RICERCHE BIOTECNOLOGICHE S.r.l., priority 2005, dated 2017):
In brackets after ≈: the same amount, converted by molar mass. Where two headings read alike, the source gives them in different places.

How the values were obtained:
whole blood = assay: Luminol dependent chemiluminescence of whole blood; type: cell-based, human; settings: 0.5 h, read-out: Whole blood chemiluminescence (IC50 mg/ml)
Procedure: Anti-inflammatory activity has been assessed by measuring luminol dependent chemiluminescence generated by free radicals released from whole blood and from white blood cells. The assay has been performed using the following protocol: 10 μl of fresh human blood is mixed with 0.980 ml of Hanks saline solution containing 5×10^−5 M luminol and the test sample (at various concentrations). The chemiluminescent response is recorded continuously for 30 minutes at a temperature of 37° C. The results are expressed as IC50 (mg/ml), i.e. as the minimum sample concentration inhibiting chemiluminescence by 50% with respect to the control. To isolate white blood cells (WBC) from whole blood one proceeds in the following manner: 1 ml of fresh blood is layered onto a Hipaque gradient (p=1.119) and centrifuged at 250×g for 60 minutes at room temperature. Following centrifugation, the pellet containing the white blood cells is washed twice, using a large volume of cold Hanks saline solution. Finally, the washed WBCs are resuspended in 0.1 ml di HBSS containing foetal calf serum. 10^6 WBC are added to a chemiluminometer cuvette. 10 μl of PMA (final concentration equal to 10 nM) are added to induce the formation of free radicals. The chemiluminescent response is recorded continuously for 30 minutes at a temperature of 37° C. […]

[1] = molecular target: T1, 5 alpha reductase, type I (Homo sapiens, UniProt P18405); assay: Type I 5 alpha reductase inhibition ([14C] testosterone conversion); type: biochemical
T1 construct: made in house; host or cells: genetically modified yeast
T1 sequence (P18405 1-259): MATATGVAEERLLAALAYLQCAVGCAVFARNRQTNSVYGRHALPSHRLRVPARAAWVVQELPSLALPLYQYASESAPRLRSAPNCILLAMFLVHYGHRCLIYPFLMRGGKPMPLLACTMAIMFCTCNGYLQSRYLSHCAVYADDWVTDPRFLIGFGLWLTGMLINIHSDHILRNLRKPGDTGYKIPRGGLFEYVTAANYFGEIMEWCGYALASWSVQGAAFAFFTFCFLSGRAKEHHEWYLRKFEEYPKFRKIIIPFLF
Procedure: Determination of the 5 alpha reductase inhibitory activities by Ajuga reptans extracts in comparison to Serenoa repens extracts. Said determination has been performed using enzymes (5 alpha reductase, type I and type II) produced by genetically modified yeast. Enzyme activities have been determined in the presence of Ajuga reptans extracts, teupolioside, isoteupolioside and Serenoa repens extracts.
Type I 5 alpha reductase activity has been assayed by incubating the enzyme in 0.1 M Tris-citrate buffer (pH 7.0), containing 5 μM [^14C] radio-labelled testosterone (Amersham, Sweden) and 5 mM NADPH (Sigma) in a final volume of 5 ml. The solution thus obtained has been incubated for 1 hour at 37° C.
In both assays, the steroids have been extracted using 5 ml of methylene chloride. The extracts have then been dried under a stream of nitrogen and the dried residues obtained have been dissolved in 20 μl of a chloroform-methanol mixture (2:1 v/v). […] For quantification of the results, the spots have been scraped from the TLC plate and extracted with 2 ml of ethyl acetate. The extracts obtained have been analysed, using scintillation fluid, with the aid of a Wallach β-counter. The enzyme activity has been calculated from the percentage conversion (C %) of the substrate into final product: C%=[counted product/(counted substrate+product)]×100.

tyrosinase = assay: Tyrosinase inhibition, conversion of L-DOPA to DOPAquinone; type: biochemical; settings: 100 μg/ml
From the text: The enzyme tyrosinase catalyses the reactions leading to melanin biosynthesis from tyrosine. […] Substances inhibiting tyrosinase activity produce a clearing/bleaching effect on the skin, since they block melanin synthesis. The method used to determine the inhibition of tyrosinase activity in the oxidation reaction of L-tyrosine to L-DOPA is that described in Kim et al. […] Biol. Pharm. […] The method applied for determination of the inhibition of tyrosinase activity in the conversion of L-DOPA to DOPAquinone is that described in Masamoto et al. (Mushroom tyrosinase inhibitory activity of esculetin isolated from seeds of Euphorbia lathyris L. Biosci. Biotechnol. Biochem., 67(3), 631-634, 2003).

[2] = Superoxide anion chemiluminescent assay (hypoxanthine/xanthine oxidase, Lumimax kit); type: biochemical; settings: means of 6 independent assays
From the text: (§1) The superoxide anion has been measured by a chemiluminescent assay based on the hypoxanthine (HPX)/xanthine oxidase (XOD) reaction using the Lumimax Superoxide Anion Detection Kit (Stratagene, La Jolla, Calif., USA) and following the manufacturer's instructions. Hydroxyl radical scavenger activity has been measured by means of the Fenton reaction for the production of hydroxyl radicals and chemiluminescent dosage (using a Victor^3 chemiluminometer, Wallac, Finland) with luminol. Peroxynitrite ions have been determined by means of dosage with a spontaneous generator of peroxynitrites (3-morpholinosidnonimine hydrochloride; SIN-1) and a stable reagent for the nitroxyl ions (2-(4-carboxyphenyl)-4,4,5,5-tetramethylimidazoline-1-oxyl-3-oxide potassium salt PTIO spin trap) then dosed by means of electron spin resonance (ESR) using a Nippon Denshi JES-FR30. Lipid peroxidation has been generated using Fe^2+ induced-oxygen reactive species, and detected using thiobarbituric acid in accordance with Buege, J A & Aust, S D: Microsomal lipid peroxidation (Methods Enzymol.
(§2) The results are expressed as the concentration inhibiting 50% of activity (IC50), means of 6 independent assays.

[3] = Peroxynitrite scavenging (SIN-1, PTIO spin trap, ESR); type: biochemical; settings: means of 6 independent assays
From the text: as §1, §2

| SMILES | IC50 (whole blood; Homo sapiens) | IC50 [1] | Test LDOPA-DOPAquinone inhibitory activity (%) (tyrosinase) | Superoxide radical (IC50) [2] | Peroxynitrite radical (IC50) [3] | IC50 (whole blood; fresh human blood, luminol, 30 min, 37° C.) | IC50 ([1]; first column of Table 9, pH 7.0, 5 μM testosterone, read-out: Type I 5 alpha reductase inhibition (IC50) (converted)) |
| --- | --- | --- | --- | --- | --- | --- | --- |
| CC1OC(OC2C(O)C(COC(=O)C=Cc3ccc(O)c(O)c3)OC(OCCc3ccc(O)c(O)c3)C2O)C(OC2OC(CO)C(O)C(O)C2O)C(O)C1O (centres unmarked) [Isoteupolioside, isoteupolioside] | 1.3 mg/mL (≈ 1650 µM) | 20.3 µM | 20% | – | – | – | – |
| C[C@@H]1O[C@@H](O[C@@H]2[C@@H](O)[C@H](OCCc3ccc(O)c(O)c3)O[C@H](CO)[C@H]2OC(=O)/C=C/c2ccc(O)c(O)c2)[C@H](O[C@@H]2O[C@H](CO)[C@H](O)[C@H](O)[C@H]2O)[C@H](O)[C@H]1O [Teupolioside, teupolioside] | – | – | 21% | 1 µg/mL | 1.8 µg/mL | 1.4 mg/mL (≈ 1780 µM) | 21.6 µM |
